Measurements: paper PMC3714282, “Pharmacometabolomics of Response to Sertraline and to Placebo in Major Depressive Disorder – Possible Role for Methoxyindole Pathway” (PLoS ONE, 2013)

Tested on: serum metabolites (tryptophan, tyrosine, purine pathways, antioxidants)
Assay: LCECA metabolomic profiling of serum: change from baseline at week 1 and week 4 (all, responders, non-responders)
Format: in vivo, human
Source text: Study participants were outpatients, 18–65 years of age, from various clinical sites across the United States. […] A complete description of the inclusion and exclusion used in this study can be found in Table S1. The study protocol was developed in accordance with the principles of the Declaration of Helsinki. All patients provided written informed consent. The study was sponsored and monitored by Pfizer, Inc. Each site's institutional review board approved and oversaw the study. The primary outcome measure was the HAMD17, used to assess depressive symptom severity. Measures were gathered at baseline, and weeks 1 and 4 of treatment at the patient's visits. Serum samples were collected using standard protocol at baseline, week 1 and week 4 of treatment at the clinic visits. Whole blood was collected in serum collection tubes and inverted 5–8 times. Serum samples were allowed to clot at room temperature for 60 minutes and then centrifuged at 1,300×g for 15 minutes. Following centrifugation supernatant was frozen at −80°C until analysis.
Samples were analyzed using a liquid chromatography electrochemical array (LCECA) platform that has been extensively validated and used in our prior studies in neurodegenerative and psychiatric disorders [30]–[34]. The method includes multiple compounds from the tyrosine, tryptophan, sulfur amino acids and purine pathways, and markers of oxidative stress and protection (for the list of metabolites and abbreviations see Table 1). Levels of 5-Methoxytryptamine (5-MTPM) were measured using a gas chromatography time-of-flight-mass spectrometry (GCTOF-MS) platform. Samples were prepared for analysis as previously described. During the sample preparation, pools were created from equal volumes of subaliquots of all samples. Concentrations of metabolites in the individual samples were expressed as a percentage of the concentration of those metabolites in the averaged pool.
Data preprocessing: We first removed the metabolites that have more than 40% missing values. […] Principal components analysis (PCA; SIMCA-P+12.0) was used to identify outliers. The analysis was performed for each time point. […] Subjects with ≥3 standard deviations away from the center of data cloud within two principal components (PC's) scores scatter plot were considered outliers and were removed from further analysis.
These analyses were conducted separately for the sertraline and placebo groups. Between groups t-tests were used to compare baseline to one week and baseline to four week change scores between the sertraline and placebo groups.
Signatures of response to sertraline and placebo were identified by using paired t-tests to compare week 4 metabolite levels to baseline metabolite levels in the responders and non-responders to therapy. […] These analyses were also performed to evaluate changes in ratios of individual metabolites within (e.g., 5-HT/5-HTP) and between branches of tryptophan pathway (e.g., KYN/MEL).

[1] = after four week of treatment, non-responders
[2] = after four week of treatment, responders
[3] = after one week of treatment, non-responders
[4] = serum, four weeks, non-responders to sertraline
[5] = serum, four weeks, poor response to sertraline
[6] = serum, four weeks, responders to sertraline
[7] = serum, log-transformed concentration, after four weeks, sertraline group

CN[C@H]1CC[C@@H](c2ccc(Cl)c(Cl)c2)c2ccccc21 [Sertraline, sertraline]
Change of 3-OHKY (average change of log-transformed concentration) [1]: 0.013 | Change of 3-OMD (average change of log-transformed concentration) [1]: -0.048 | Change of 4-HBAC (average change of log-transformed concentration) [1]: 0.19 | Change of 4-HPAC (average change of log-transformed concentration) [1]: 0.14 | Change of 4-HPLA (average change of log-transformed concentration) [1]: 0.11 | Change of 5-HIAA (average change of log-transformed concentration) [1]: -0.077 | Change of 5-HT (average change of log-transformed concentration) [1]: -1.6 | Change of 5-HTP (average change of log-transformed concentration) [1]: 0.24 | Change of 5-MTPOL (average change of log-transformed concentration) [1]: 0.093 | Change of 7-MXAN (average change of log-transformed concentration) [1]: 0.56 | Change of ATOCO (average change of log-transformed concentration) [1]: 0.47 | Change of CYS (average change of log-transformed concentration) [1]: -0.014 | Change of DIOHMAL (average change of log-transformed concentration) [1]: 0.25 | Change of DOPAC (average change of log-transformed concentration) [1]: -0.099 | Change of DTOCO (average change of log-transformed concentration) [1]: 0.52 | Change of GR (average change of log-transformed concentration) [1]: 0.31 | Change of GRMP (average change of log-transformed concentration) [1]: -0.16 | Change of GSH (average change of log-transformed concentration) [1]: -0.084 | Change of HGA (average change of log-transformed concentration) [1]: 0.63 | Change of HVA (average change of log-transformed concentration) [1]: 0.085 | Change of HX (average change of log-transformed concentration) [1]: 0.014 | Change of KYN (average change of log-transformed concentration) [1]: 0.066 | Change of LD (average change of log-transformed concentration) [1]: 0.35 | Change of MEL (average change of log-transformed concentration) [1]: 0.26 | Change of METH (average change of log-transformed concentration) [1]: 0.3 | Change of MHPG (average change of log-transformed concentration) [1]: -0.28 | Change of NA-5-HT (average change of log-transformed concentration) [1]: 0.0044 | Change of TRP (average change of log-transformed concentration) [1]: 0.11 | Change of TRPOL (average change of log-transformed concentration) [1]: 0.053 | Change of TYR (average change of log-transformed concentration) [1]: -0.11 | Change of UA (average change of log-transformed concentration) [1]: -0.095 | Change of VMA (average change of log-transformed concentration) [1]: 0.058 | Change of XAN (average change of log-transformed concentration) [1]: -0.19 | Change of XANTH (average change of log-transformed concentration) [1]: 0.098 | Change of 3-OHKY (average change of log-transformed concentration) [2]: 0.071 | Change of 3-OMD (average change of log-transformed concentration) [2]: 0.19 | Change of 4-HBAC (average change of log-transformed concentration) [2]: 0.07 | Change of 4-HPAC (average change of log-transformed concentration) [2]: 0.37 | Change of 4-HPLA (average change of log-transformed concentration) [2]: 0.14 | Change of 5-HIAA (average change of log-transformed concentration) [2]: -0.046 | Change of 5-HT (average change of log-transformed concentration) [2]: -2.2 | Change of 5-HTP (average change of log-transformed concentration) [2]: 0.014 | Change of 5-MTPOL (average change of log-transformed concentration) [2]: 0.17 | Change of 7-MXAN (average change of log-transformed concentration) [2]: -0.32 | Change of ATOCO (average change of log-transformed concentration) [2]: 0.76 | Change of CYS (average change of log-transformed concentration) [2]: 0.0094 | Change of DIOHMAL (average change of log-transformed concentration) [2]: 0.47 | Change of DOPAC (average change of log-transformed concentration) [2]: 0.058 | Change of DTOCO (average change of log-transformed concentration) [2]: 0.88 | Change of GR (average change of log-transformed concentration) [2]: -0.26 | Change of GRMP (average change of log-transformed concentration) [2]: 0.23 | Change of GSH (average change of log-transformed concentration) [2]: 0.096 | Change of HGA (average change of log-transformed concentration) [2]: 0.21 | Change of HVA (average change of log-transformed concentration) [2]: 0.12 | Change of HX (average change of log-transformed concentration) [2]: -0.022 | Change of KYN (average change of log-transformed concentration) [2]: 0.027 | Change of LD (average change of log-transformed concentration) [2]: -0.069 | Change of MEL (average change of log-transformed concentration) [2]: 0.68 | Change of METH (average change of log-transformed concentration) [2]: 0.12 | Change of MHPG (average change of log-transformed concentration) [2]: -0.16 | Change of NA-5-HT (average change of log-transformed concentration) [2]: 0.071 | Change of TRP (average change of log-transformed concentration) [2]: 0.041 | Change of TRPOL (average change of log-transformed concentration) [2]: 0.068 | Change of TYR (average change of log-transformed concentration) [2]: 0.14 | Change of UA (average change of log-transformed concentration) [2]: -0.027 | Change of VMA (average change of log-transformed concentration) [2]: -0.077 | Change of XAN (average change of log-transformed concentration) [2]: -0.14 | Change of XANTH (average change of log-transformed concentration) [2]: 0.0046 | Change of 3-OHKY (average change of log-transformed concentration) [3]: -0.11 | Change of 3-OMD (average change of log-transformed concentration) [3]: -0.082 | Change of 4-HBAC (average change of log-transformed concentration) [3]: -0.44 | Change of 4-HPAC (average change of log-transformed concentration) [3]: 0.18 | Change of 4-HPLA (average change of log-transformed concentration) [3]: 0.055 | Change of 5-HIAA (average change of log-transformed concentration) [3]: -0.19 | Change of 5-HT (average change of log-transformed concentration) [3]: -0.72 | Change of 5-HTP (average change of log-transformed concentration) [3]: -0.14 | Change of 5-MTPOL (average change of log-transformed concentration) [3]: -0.027 | Change of 7-MXAN (average change of log-transformed concentration) [3]: 0.16 | Change of ATOCO (average change of log-transformed concentration) [3]: 0.084 | Change of CYS (average change of log-transformed concentration) [3]: -0.056 | Change of DIOHMAL (average change of log-transformed concentration) [3]: 0.17 | Change of DOPAC (average change of log-transformed concentration) [3]: -0.18 | Change of DTOCO (average change of log-transformed concentration) [3]: 0.024 | Change of GR (average change of log-transformed concentration) [3]: -0.47 | Change of GRMP (average change of log-transformed concentration) [3]: -0.012 | Change of GSH (average change of log-transformed concentration) [3]: -0.0084 | Change of HGA (average change of log-transformed concentration) [3]: 0.34 | Change of HVA (average change of log-transformed concentration) [3]: 0.0025 | Change of HX (average change of log-transformed concentration) [3]: -0.066 | Change of KYN (average change of log-transformed concentration) [3]: -0.11 | Change of LD (average change of log-transformed concentration) [3]: 0.053 | Change of MEL (average change of log-transformed concentration) [3]: 0.3 | Change of METH (average change of log-transformed concentration) [3]: 0.16 | Change of MHPG (average change of log-transformed concentration) [3]: -0.072 | Change of NA-5-HT (average change of log-transformed concentration) [3]: 0.027 | Change of TRP (average change of log-transformed concentration) [3]: -0.022 | Change of TRPOL (average change of log-transformed concentration) [3]: 0.0024 | Change of TYR (average change of log-transformed concentration) [3]: -0.073 | Change of UA (average change of log-transformed concentration) [3]: -0.095 | Change of VMA (average change of log-transformed concentration) [3]: 0.12 | Change of XAN (average change of log-transformed concentration) [3]: -0.18 | Change of XANTH (average change of log-transformed concentration) [3]: 0.11 | Change in 5-HT levels [4]: significantly reduced | Change in 5-MTPOL levels [4]: not significantly changed | Change in DIOHMAL levels [4]: significantly increased | Change in MEL levels [4]: not significantly changed | Change in HGA levels [5]: Significant increases | Change in LD levels [5]: Significant increases | Change in 4-HPAC levels [6]: significantly increased | Change in 5-HT levels [6]: significant decrease | Change in 5-MTPOL levels [6]: significant increases | Change in DIOHMAL levels [6]: significantly increased | Change in MEL levels [6]: significant increases | Change 3-OHKY [7]: 0.044 | Change 3-OMD [7]: 0.079 | Change 4-HBAC [7]: 0.12 | Change 4-HPAC [7]: 0.26 | Change 4-HPLA [7]: 0.13 | Change 5-HIAA [7]: −0.06
